Experimental data from patent publication US9341616B2, “Sweet taste receptor chimeric proteins and use thereof” (AJINOMOTO CO., INC., priority 2014, dated 2016).
Residues, ends and D or L forms follow the SMILES beside them.

Biological target: h-mT1R2-471/T1R3mosaicA (UniProt Q8TE23+Q925D8, A12W/A31M/A537S/A558R/A564V/A568V/A570T/A588V/A645S/A649T/A658V/A698V/A702T/A782V/A793V/A807V/C582S/C678S/D480N/E16H/E530V/E534N/E542M/E548N/E725V/F14L/F29L/F525Y/F541I/F612A/F622V/F665L/F695L/G696N/G701T/H484Y/H528R/H728R/I36V/I481V/I486P/I490V/I510L/I518V/I595M/I60P/I617V/I643V/I645L/I692L/I695G/I706V/I740A/I803L/K30R/K476T/K504M/K555R/K565R/K626T/K714N/K818R/K827G/L17P/L471T/L521P/L560F/L571I/L578I/L610P/L631F/L636F/L639V/L684P/L688V/L702I/L734M/L735F/L800F/L823M/L825Q/M19T/M492I/M616G/M644L/M682V/M690V/M744T/M748V/N477Y/N52R/N540G/N541S/N547G/N58S/N63T/N675D/N721H/P545F/P561R/P564S/P61V/P638T/P824S/Q32K/Q472E/Q474R/Q479S/Q536L/Q53S/Q546K/Q550E/Q555R/Q56R/Q611L/Q676H/Q757R/Q795R/Q831P/R473T/R498S/R632Q/R667S/S22P/S45E/S501P/S547N/S550A/S576L/S595F/S610P/S628F/S635P/S637R/S663R/S670G/S679G/S681F/S703N/S717H/S727G/S784D/S804G/T46A/T50G/T529S/T542A/T549I/T609V/T629S/T642S/T663I/T694M/T705I/T706G/T716I/T813A/V508I/V512P/V557A/V573A/V584A/V585L/V613L/V617M/V673M/V687A/V691A/V694A/V718L/V718M/V723A/V729T/V738A/V741L/V774I/V791M/V805L/V812A/V821L/W599R/W676R/W824R/Y533F/Y615F/Y671F/Y680C/Y769S/Y783H/Y794L)
Details: Table 4; genes h-mT471/T3mA (h-mT1R2-471, T1R3mA); HEK293E cells

Chain of h-mT1R2-471/T1R3mosaicA (Q8TE23 with tags, fused parts or gaps with the stated changes limits assumed): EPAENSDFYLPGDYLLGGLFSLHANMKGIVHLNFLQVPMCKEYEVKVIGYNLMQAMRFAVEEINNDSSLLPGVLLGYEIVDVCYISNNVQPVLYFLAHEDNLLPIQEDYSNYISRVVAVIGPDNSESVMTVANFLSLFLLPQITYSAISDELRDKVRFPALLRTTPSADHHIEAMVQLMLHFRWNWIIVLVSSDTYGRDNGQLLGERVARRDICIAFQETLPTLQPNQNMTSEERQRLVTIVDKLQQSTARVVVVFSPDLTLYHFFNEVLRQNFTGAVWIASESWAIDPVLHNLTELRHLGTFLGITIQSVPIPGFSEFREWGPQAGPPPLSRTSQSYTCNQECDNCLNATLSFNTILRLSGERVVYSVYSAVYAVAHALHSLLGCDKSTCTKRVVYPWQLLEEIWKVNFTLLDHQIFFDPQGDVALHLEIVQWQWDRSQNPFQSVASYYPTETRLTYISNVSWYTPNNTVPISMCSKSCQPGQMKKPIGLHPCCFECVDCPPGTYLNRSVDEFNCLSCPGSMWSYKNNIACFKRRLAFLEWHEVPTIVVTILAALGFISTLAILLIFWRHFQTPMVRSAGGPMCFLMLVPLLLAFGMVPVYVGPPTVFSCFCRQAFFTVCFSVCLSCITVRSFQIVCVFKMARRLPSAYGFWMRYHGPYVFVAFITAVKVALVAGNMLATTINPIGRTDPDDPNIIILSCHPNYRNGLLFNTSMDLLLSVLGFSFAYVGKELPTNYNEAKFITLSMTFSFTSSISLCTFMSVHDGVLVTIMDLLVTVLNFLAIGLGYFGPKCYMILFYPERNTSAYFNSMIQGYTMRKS
Chain of h-mT1R2-471/T1R3mosaicA (Q925D8 with tags, fused parts or gaps with the stated changes limits assumed): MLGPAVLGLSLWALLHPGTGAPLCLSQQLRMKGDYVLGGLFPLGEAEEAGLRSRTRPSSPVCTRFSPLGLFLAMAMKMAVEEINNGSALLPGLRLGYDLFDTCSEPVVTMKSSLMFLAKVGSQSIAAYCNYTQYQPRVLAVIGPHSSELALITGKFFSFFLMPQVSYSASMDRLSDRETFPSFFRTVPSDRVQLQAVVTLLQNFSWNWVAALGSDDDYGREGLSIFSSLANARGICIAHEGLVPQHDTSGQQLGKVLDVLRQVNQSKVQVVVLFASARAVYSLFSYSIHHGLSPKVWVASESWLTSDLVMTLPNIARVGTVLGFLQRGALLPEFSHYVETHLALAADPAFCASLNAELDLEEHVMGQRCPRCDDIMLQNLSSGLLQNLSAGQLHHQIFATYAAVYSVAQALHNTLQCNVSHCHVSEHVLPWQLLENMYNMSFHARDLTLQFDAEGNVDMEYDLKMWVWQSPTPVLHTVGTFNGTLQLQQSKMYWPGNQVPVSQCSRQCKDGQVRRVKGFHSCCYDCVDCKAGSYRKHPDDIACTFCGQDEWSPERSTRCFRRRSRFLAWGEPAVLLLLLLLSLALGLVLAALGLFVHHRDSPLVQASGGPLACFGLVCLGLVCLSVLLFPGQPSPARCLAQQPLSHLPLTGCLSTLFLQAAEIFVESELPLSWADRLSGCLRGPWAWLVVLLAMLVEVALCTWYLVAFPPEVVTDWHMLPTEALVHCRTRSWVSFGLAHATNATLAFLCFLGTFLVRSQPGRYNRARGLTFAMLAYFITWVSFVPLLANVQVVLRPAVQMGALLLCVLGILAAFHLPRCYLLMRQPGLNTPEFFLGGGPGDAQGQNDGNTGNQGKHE

| SMILES | S/N |
| --- | --- |
| COC(=O)[C@H](Cc1ccccc1)NC(=O)[C@@H](N)CC(=O)O [Aspartame, aspartame] (HELM PEPTIDE1{D.F.[CO[*:1]]}$$$$V2.0) | 7.9 |
| OC[C@H]1O[C@H](O[C@]2(CCl)O[C@H](CCl)[C@@H](O)[C@@H]2O)[C@H](O)[C@@H](O)[C@H]1Cl [Sucralose, sucralose] | 7.1 |
| O=C1NS(=O)(=O)c2ccccc21.[Na] [Saccharin Na, sodium saccharin] | 3.9 |
| COC(=O)[C@H](Cc1ccccc1)NC(=O)[C@H](CC(=O)O)NCCCc1ccc(OC)c(O)c1 [Advantame, advantame] | 10.0 |
| C[C@H](NC(=Nc1ccc(C#N)cc1)NCC(=O)O)c1ccccc1 [SC-45647, [3-[(S)-1-phenylethyl]-2-(4-cyanophenyl)guanidino]acetic acid] | 6.5 |
| OC[C@H]1O[C@@](CO)(O[C@H]2O[C@H](CO)[C@@H](O)[C@H](O)[C@H]2O)[C@@H](O)[C@@H]1O [Sucrose, sucrose] | 3.5 |
| CC1=CC(=O)NS(=O)(=O)O1 [Acesulfame K, acesulfame potassium] | 4.3 |
| COC(=O)[C@H](Cc1ccccc1)NC(=O)[C@H](CC(=O)O)NCCC(C)(C)C [Neotame, neotame] | 8.3 |
